Test results taken from patent publication US11077126B2 (priority 2017, dated 2021).
Marks after values point to notes of the source that are not given here.

What was measured:
[1] = test system: transplanted tumor of human lymphoma U937 cells; experiment: Human lymphoma in nude mice model; conditions: 30 mg/kg i.g. 30 d
Protocol: (§1) U937 cells in a logarithmic growth phase were taken and subjected to a trypan blue exclusion experiment showing that the cell viability was more than 95%, then the cells were subjected to trypsinization, centrifugation, and supernatant removal. Then cell concentration was adjusted to 1×10^7/ml with matrigel, and then each nude mouse was inoculated subcutaneously with 0.2 ml of cells at its right armpit and recorded as the first day of inoculation. […] Each group was continuously administered intragastrically for 30 days with a dose of 20 ml/kg. The mice were sacrificed the next day after drug withdrawal and the indicators were tested. The long diameter and short diameter of the tumor, and the body weight of each mouse were recorded every 3 days from drug administration to nude mouse sacrifice.
(§2) The body weight of the nude mice and the long diameter (a) and short diameter (b) of the transplanted tumor were measured every 3 days, and the tumor volume (v), relative tumor volume (RTV) and relative tumor proliferation rate (T/C) are calculated respectively according to the following formulas, wherein V=a×b^2/2; RTV=V/V0 (V0 is the tumor volume before administration, V is the tumor volume before sacrifice), and T/C (%)=treatment group RTV/model control group RTV×100%.
(§3) Each mouse was weighed and sacrificed. After the tumor was completely stripped off from the body of the mouse, the non-tumor tissues such as blood stains and fat were removed to weigh the tumor and calculate the tumor growth inhibition rate. The average tumor weight of each group of mice is used as an indicator of efficacy. Tumor growth inhibition rate (%)=(1−the average tumor weight of the treatment group/the average tumor weight of the model group)×100%.

[2] = test system: transplanted tumor of human large cell lung cancer H1299 cells; experiment: Human large cell lung cancer (H1299) in nude mice model; conditions: 30 mg/kg i.g. 30 d
Protocol: as §1, with “Then” for “U937 cells in a logarithmic growth phase were taken and subjected to a trypan blue exclusion experiment showing that the cell viability was more than 95%, then the cells were subjected to trypsinization, centrifugation, and supernatant removal. Then”, “matrigel,” for “matrigel, and”
as §2, §3

[3] = test system: transplanted tumor of human esophageal cancer TE-1 cells; experiment: Human esophageal cancer in nude mice model; conditions: 30 mg/kg
Protocol: as §1, with “Then” for “U937 cells in a logarithmic growth phase were taken and subjected to a trypan blue exclusion experiment showing that the cell viability was more than 95%, then the cells were subjected to trypsinization, centrifugation, and supernatant removal. Then”
as §2, §3

[4] = test system: transplanted tumor of mouse H22 liver cancer; experiment: Inhibition of transplanted tumor of mouse H22 liver cancer
Protocol: The H22 cell strains cryopreserved in liquid nitrogen were resuscitated in Kunming mice. After 3 generations, the ascites of Kunming mice were taken and placed in a 50 ml centrifuge tube in which 10 ml of 0.9% normal saline was added, and then centrifuging was performed at 1000 rpm for 5 min at room temperature, and the obtained supernatant was removed. Then 10 ml of 0.9% normal saline was added to the tube to blow and mix well, and then the mixture was diluted to 5×10^6 live cells/ml with normal saline after counting. The tube was stored in ice water, and 75% ethanol was used to disinfect the skin under the right armpits of the mice. Each Kunming mouse was soon inoculated subcutaneously with 0.2 ml of the cells at the armpit of the right forelimb.
In the H22 liver cancer model, the mice inoculated with the tumor were randomly divided into groups with 10 mice in each group on the next day of inoculation. […] Each group was continuously administered intragastrically for 7 days with a dose of 20 ml/kg.
The tumor-bearing mice were weighed and sacrificed the next day after the last administration. The subcutaneous tumors were dissected and weighed. The average tumor weight of each group is calculated, and the tumor inhibition rate is calculated. Tumor inhibition rate=(1−T/C)×100%
T: average tumor weight of the drug-administered group; C: average tumor weight of the blank control group.

[5] = test system: spleen lymphocytes (ConA, LPS stimulation); experiment: Spleen lymphocyte proliferation activity of Lewis lung cancer tumor-bearing mice; format: in vivo, C57BL/6 mouse
Protocol: The serum-free RPMI 1640 medium was placed in a dish, and then the dish was placed on ice. The spleen was aseptically taken and gently ground with a sterile glass slide to prepare a single cell suspension. The single cell suspension was filtered with a double-layer sterile gauze, washed twice with serum-free RPMI 1640 medium, and centrifuged at 1,500 rpm for 5 min to remove the obtained supernatant. 2 mL of red blood cell lysate was added to the treated suspension, the mixture was allowed to stand for 2 min, and then 8 mL of RPMI 1640 medium was added, centrifuging was performed at 1,500 rpm for 5 min to remove the obtained supernatant, and then washing was performed twice with the RPMI 1640 medium. Trypan blue staining was performed to count the number of live cells, and the cell viability was more than 95%. A single cell suspension was prepared by using a RPMI 1640 medium containing 10% fetal bovine serum.
The spleen cell suspension was taken, and the cell density was adjusted to 1×10^7/mL. Each mouse was set with: A. a control well: 100 μL of RPMI 1640 medium was added; B. a concanavalin A (ConA) stimulation well: 100 μL (10 mg/L) of concanavalin A (ConA) solution was added; and C. a bacterial endotoxin (LPS) stimulating well: 100 μL (20 mg/L) of bacterial endotoxin (LPS) solution was added. The above cells were added to a 96-well plate, and then 100 μL of spleen cell suspension was added to each of the above wells. After the culture plate was transferred to a saturated humidity condition with a volume fraction of 5% CO2 at 37° C. for incubation for 72 h, 10 μL of MTT solution (5 g/L) was added to each well, and incubation was continued to be performed for 4 hours under the same conditions, then the culture was terminated. […] The Optical Density (OD) of each well was measured at 570 nm, and the lymphocyte proliferation rate was calculated. Lymphocyte proliferation rate (%)=[(T−C)/C]×100%, wherein T is the Optical Density of the stimulation well, and C is the Optical Density of the control well.

[6] = 26 mg/kg, positive drug group, n = 6

O=P1(N(CCCl)CCCl)NCCCO1 (stereo not drawn) [Cyclophosphamide]
Body Weight (g)(d1) [1]: 19.79 ± 0.86 g
Body Weight (g)(d30) [1]: 18.85 ± 0.62 g
Inhibition Rate (%) [1]: 78.40%
Relative Tumor Proliferation Rate(T/C) [1]: 34.30%
Relative Tumor Volume (RTV) [1]: 6.37 ± 0.94
Tumor Volume (mm^3) (d1) [1]: 139.58 ± 11.25 mm^3
Tumor Volume (mm^3) (d30) [1]: 889.72 ± 59.73*** mm^3
Tumor Weight [1]: 0.38 ± 0.16 g
Body Weight (g)(d1) [2]: 20.92 ± 0.59 g
Body Weight (g)(d30) [2]: 18.82 ± 0.52 g
Inhibition Rate (%) [2]: 68.59%
Relative Tumor Proliferation Rate(T/C) [2]: 31.47%
Relative Tumor Volume (RTV) [2]: 6.13 ± 0.82
Tumor Volume (mm3) (d1) [2]: 115.38 ± 13.82 mm3
Tumor Volume (mm3) (d30) [2]: 707.28 ± 26.96 mm3
Tumor Weight [2]: 0.56 ± 0.11 g
Relative Tumor Proliferation Rate(T/C) [3]: 52.01%
Relative Tumor Volume (RTV) [3]: 9.05 ± 2.58
Tumor Weight [3]: 0.66 ± 0.28 g
Inhibition Rate (%) ([3]; by tumor weight): 72.12%
Body Weight (g)(d1) ([3]; d1): 22.78 ± 1.35 g
Tumor Volume (mm3) (d1) ([3]; d1): 92.02 ± 7.06 mm3
Body Weight (g)(d30) ([3]; d30): 21.32 ± 1.63 g
Tumor Volume (mm3) (d30) ([3]; d30): 830.30 ± 34.31 mm3
tumour ([4]; 26 mg/kg, positive drug group): 0.53 ± 0.24 g
Inhibition Rate (%) ([4]; 26 mg/kg, positive drug group, by tumor weight): 47.25%
Body Weight (g)(d1) ([4]; 26 mg/kg, positive drug group, d1): 23.50 ± 1.90 g
Body Weight (g) (d7) ([4]; 26 mg/kg, positive drug group, d7): 25.13 ± 2.69 g
weight compared with the normal control group ([4]; H22 liver cancer mice, cyclophosphamide 26 mg/kg): slight decrease in weight
tumor inhibition rate ([4]; Kunming mouse H22 liver cancer, cyclophosphamide 26 mg/kg i.g. 7 days): 47.25%
B Lymphocyte Proliferation Activity (%) [5, 6]: 11.63 ± 4.68 %
T Lymphocyte Proliferation Activity (%) [5, 6]: 13.24 ± 3.72 %
lymphocyte activity (proliferation) ([5]; Lewis lung cancer tumor-bearing mice, cyclophosphamide, P<0.05): significantly inhibited
